The test system of the experiment is P388 leukemia ip, CD2F1 mice, survival T/C. Kind of experiment: NCI In Vivo Anticancer Drug Screen. Data for tumor model P388 Leukemia (intraperitoneal) in CD2F1 (CDF1) mice. The following applies: endpoint: median survival time, higher = longer survival. In a few lines:
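Mice carrying the transplanted tumor received test compound or vehicle. Survival was recorded in each group, and the value is the treated-group measurement divided by that of the vehicle-treated control group.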

Setting [1] is: dose: 50.0 mg/kg/injection, schedule: Q01DX005 (ip), vehicle: saline with Tween-80.
[2] abbreviates: dose: 100.0 mg/kg/injection, schedule: Q01DX005 (ip), vehicle: saline with Tween-80.

Toxic doses and inconclusive results are not listed.

For the molecule `O=C(CCCc1ccc(N2C(=O)C=CC2=O)cc1)ON1C(=O)CCC1=O`, the T/C (dose: 12.5 mg/kg/injection, schedule: Q04DX002 (ip), vehicle: saline with Tween-80) was 105 % of control and the T/C (dose: 25.0 mg/kg/injection, schedule: Q04DX002 (ip), vehicle: saline with Tween-80) is 104 % of control.
Turning to `Cc1cc([N+](=O)[O-])ccc1N=Nc1ccc(O)c(C(=O)O)c1`, the T/C under setting [1] was 105 % of control and the T/C under setting [2] is 95 % of control.
For `O=C1CCCC2c3[nH]c4ccccc4c3CCN12` (stereo not given), the T/C by setting is: (dose: 100.0 mg/kg/injection, schedule: Q04DX002 (ip), vehicle: Klucel (hydroxypropylcellulose) (HPC)) 97 % of control; (dose: 200.0 mg/kg/injection, schedule: Q04DX002 (ip), vehicle: Klucel (hydroxypropylcellulose) (HPC)) 100 % of control; (dose: 400.0 mg/kg/injection, schedule: Q04DX002 (ip), vehicle: Klucel (hydroxypropylcellulose) (HPC)) 96 % of control.
Consider `CCCCN(CCCC)CC(O)c1cc2ccccc2c2cc(Br)ccc12` (stereo not given), for which the T/C by setting is: under setting [1], 100 % of control; under setting [2], 102 % of control; (dose: 200.0 mg/kg/injection, schedule: Q01DX005 (ip), vehicle: saline with Tween-80) 100 % of control.
Regarding `CC(C)C/C=N\N=C(N)N`, the T/C by setting is: (dose: 50.0 mg/kg/injection, schedule: Q01DX005 (ip), vehicle: saline) 100 % of control; (dose: 100.0 mg/kg/injection, schedule: Q01DX005 (ip), vehicle: saline) 100 % of control.
Take `ClC1=C(Cl)N(C2=NCCC2)CC1`: the T/C (dose: 6.25 mg/kg/injection, schedule: Q01DX009 (ip), vehicle: Klucel (hydroxypropylcellulose) (HPC)) is 96 % of control; the T/C (dose: 12.5 mg/kg/injection, schedule: Q01DX009 (ip), vehicle: Klucel (hydroxypropylcellulose) (HPC)) was 99 % of control; the T/C (dose: 25.0 mg/kg/injection, schedule: Q01DX009 (ip), vehicle: Klucel (hydroxypropylcellulose) (HPC)) was 99 % of control.
